From patent US20200325177A1, “METHODS OF MAKING STREPTOGRAMIN COMPOSITIONS AND THE USE THEREOF” (THE REGENTS OF THE UNIVERSITY OF CALIFORNIA, priority 2017, published 2020)
Converted amounts (≈) assume the structure as drawn. Read-outs that look alike come from different tables or passages of the source.

What was measured:
Assay type in all cases: cell-based
[1] = tested on: E. faecium VRE; vanA; experiment: MIC, Gram-positive bacteria: E. faecium VRE; vanA; conditions: Enterococcus faecium, column 3, read-out: Minimal Inhibitory Concentration (MIC) E. faecium VRE
[2] = tested on: E. faecium ATCC 35667; experiment: MIC, Gram-positive bacteria: E. faecium ATCC 35667; conditions: Enterococcus faecium, ATCC35667, column 2, read-out: Minimal Inhibitory Concentration (MIC) E. faecium ATCC 35667
[3] = tested on: E. faecalis; experiment: MIC, Gram-positive bacteria: E. faecalis; conditions: Enterococcus faecalis, column 1, read-out: Minimal Inhibitory Concentration (MIC) E. faecalis
[4] = tested on: S. aureus Linezolid-resistant; cfr; experiment: MIC, Gram-positive bacteria: S. aureus Linezolid-resistant; cfr; conditions: Staphylococcus aureus, column 9, read-out: Minimal Inhibitory Concentration (MIC) S. aureus Linezolid-resistant
[5] = tested on: P. aeruginosa ATCC 27853; experiment: MIC, Gram-negative bacteria: P. aeruginosa ATCC 27853; conditions: Pseudomonas aeruginosa, ATCC27853, read-out: Minimal Inhibitory Concentration (MIC) P. aeruginosa ATCC 27853
[6] = tested on: P. aeruginosa MDR clinical isolate; experiment: MIC, Gram-negative bacteria: P. aeruginosa MDR clinical isolate; conditions: Pseudomonas aeruginosa, read-out: Minimal Inhibitory Concentration (MIC) P. aeruginosa MDR clinical isolate
[7] = tested on: S. aureus Vat A streptogramin; experiment: MIC, Gram-positive bacteria: S. aureus Vat A streptogramin; conditions: Staphylococcus aureus; Gram-positive; column 5; read-out: Minimal Inhibitory Concentration (MIC) S. aureus Vat A streptogramin
[8] = tested on: S. pneumoniae; experiment: MIC, Gram-positive bacteria: S. pneumoniae; conditions: Streptococcus pneumoniae, column 10, read-out: Minimal Inhibitory Concentration (MIC) S. pneumoniae
[9] = tested on: Gram-Negative Organisms; experiment: microbe, parasite or virus in culture
[10] = tested on: S. aureus; experiment: MIC, Gram-positive bacteria: S. aureus (strains not named); conditions: Staphylococcus aureus, read-out: Minimal Inhibitory Concentration (MIC) S. aureus
[11] = tested on: K. pneumoniae multidrug-resistant; experiment: MIC, Gram-negative bacteria: K. pneumoniae multidrug-resistant; conditions: Klebsiella pneumoniae, read-out: Minimal Inhibitory Concentration (MIC) K. pneumoniae multidrug-resistant
[12] = tested on: H. influenzae ATCC 49247; experiment: MIC, Gram-negative bacteria: H. influenzae ATCC 49247; conditions: Haemophilus influenzae, ATCC49247, read-out: Minimal Inhibitory Concentration (MIC) H. influenzae ATCC 49247
[13] = Acinetobacter baumannii, ATCC19606, read-out: Minimal Inhibitory Concentration (MIC), A. baumannii ATCC 19606
[14] = Escherichia coli, ATCC25922, read-out: Minimal Inhibitory Concentration (MIC), E. coli ATCC 25922
[15] = Escherichia coli, read-out: Minimal Inhibitory Concentration (MIC), E. coli BAS2006, OMP C, OMP F
[16] = Escherichia coli, read-out: Minimal Inhibitory Concentration (MIC), E. coli olC efflux defective
[17] = Escherichia coli, read-out: Minimal Inhibitory Concentration (MIC), E. coli permeability mutant BAS1314, IMP4213ZAB::TN10
[18] = Klebsiella pneumoniae, ATCC43816, read-out: Minimal Inhibitory Concentration (MIC), K. pneumoniae ATCC 43816
[19] = first unnamed S. aureus column (c4)
[20] = fourth unnamed S. aureus column (c8)
[21] = second unnamed S. aureus column (c6)
[22] = third unnamed S. aureus column (c7)

| SMILES | MIC [1] [µg/mL] | MIC [2] [µg/mL] | MIC [3] [µg/mL] | MIC [4] [µg/mL] | MIC [5] [µg/mL] | MIC [6] [µg/mL] | MIC [7] [µg/mL] | MIC [8] [µg/mL] | MIC [9, 13] [µg/mL] | MIC [9, 14] [µg/mL] | MIC [9, 15] [µg/mL] | MIC [9, 16] [µg/mL] | MIC [9, 17] [µg/mL] | MIC [9, 18] [µg/mL] | MIC [10, 19] [µg/mL] | MIC [10, 20] [µg/mL] | MIC [10, 21] [µg/mL] | MIC [10, 22] [µg/mL] | MIC [11] [µg/mL] | MIC [12] [µg/mL] |
| --- | --- | --- | --- | --- | --- | --- | --- | --- | --- | --- | --- | --- | --- | --- | --- | --- | --- | --- | --- | --- |
| CC1=C\[C@@H](O)CC(=O)Cc2nc(co2)C(=O)N2CCC[C@@H]2C(=O)O[C@H]([C@@H](C)CO)[C@H](C)/C=C/C(=O)NC\C=C\1 [SA0110026] | > 64 | 64 (≈ 118 µM) | > 64 | > 64 | > 64 | > 64 | > 64 | 64 (≈ 118 µM) | > 64 | > 64 | 64 (≈ 118 µM) | 32 (≈ 58.9 µM) | 64 (≈ 118 µM) | > 64 | > 64 | > 64 | > 64 | > 64 | > 64 | 64 (≈ 118 µM) |
| CC1=C\[C@@H](O)CC(=O)Cc2nc(co2)C(=O)N2CCC[C@@H]2C(=O)O[C@H]([C@@H](C)COC(=O)Nc2ccc(F)cc2)[C@H](C)/C=C/C(=O)NC\C=C\1 [SA0110036] | 32 (≈ 47 µM) | 8 (≈ 11.8 µM) | > 64 | > 64 | > 64 | > 64 | > 64 | 16 (≈ 23.5 µM) | > 64 | > 64 | 8 (≈ 11.8 µM) | 2 (≈ 2.94 µM) | 8 (≈ 11.8 µM) | > 64 | 32 (≈ 47 µM) | 16 (≈ 23.5 µM) | 32 (≈ 47 µM) | > 64 | > 64 | > 64 |
| CC1=C\[C@@H](O)CC(=O)Cc2nc(co2)C(=O)N2CCC[C@@H]2C(=O)O[C@H]([C@@H](C)COC(=O)Nc2ccc(C)cc2)[C@H](C)/C=C/C(=O)NC\C=C\1 [SA0110037] | 64 (≈ 94.6 µM) | 16 (≈ 23.6 µM) | > 64 | > 64 | > 64 | > 64 | > 64 | 16 (≈ 23.6 µM) | > 64 | > 64 | 16 (≈ 23.6 µM) | 4 (≈ 5.91 µM) | 8 (≈ 11.8 µM) | > 64 | 32 (≈ 47.3 µM) | 16 (≈ 23.6 µM) | 32 (≈ 47.3 µM) | 64 (≈ 94.6 µM) | > 64 | > 64 |
| COc1ccc(NC(=O)OC[C@H](C)[C@H]2OC(=O)[C@H]3CCCN3C(=O)c3coc(n3)CC(=O)C[C@H](O)/C=C(C)/C=C/CNC(=O)/C=C/[C@H]2C)cc1 [SA0110040] | 64 (≈ 92.4 µM) | 16 (≈ 23.1 µM) | > 64 | > 64 | > 64 | > 64 | > 64 | 16 (≈ 23.1 µM) | > 64 | > 64 | 16 (≈ 23.1 µM) | 2 (≈ 2.89 µM) | 8 (≈ 11.5 µM) | > 64 | 32 (≈ 46.2 µM) | 16 (≈ 23.1 µM) | 32 (≈ 46.2 µM) | 64 (≈ 92.4 µM) | > 64 | 16 (≈ 23.1 µM) |
| CC1=C\[C@@H](O)CC(=O)Cc2nc(co2)C(=O)N2CCC[C@@H]2C(=O)O[C@H]([C@@H](C)COC(=O)Nc2ccc(OC(F)(F)F)cc2)[C@H](C)/C=C/C(=O)NC\C=C\1 [SA0110041] | > 64 | 8 (≈ 10.7 µM) | > 64 | > 64 | > 64 | > 64 | > 64 | > 64 | > 64 | > 64 | > 64 | 8 (≈ 10.7 µM) | 8 (≈ 10.7 µM) | > 64 | > 64 | 32 (≈ 42.9 µM) | > 64 | > 64 | > 64 | > 64 |
| CC1=C\[C@@H](O)CC(=O)Cc2nc(co2)C(=O)N2CCC[C@@H]2C(=O)O[C@H]([C@@H](C)COC(=O)Nc2ccccc2)[C@H](C)/C=C/C(=O)NC\C=C\1 [SA0110043] | 64 (≈ 96.6 µM) | 16 (≈ 24.1 µM) | > 64 | > 64 | > 64 | > 64 | > 64 | 16 (≈ 24.1 µM) | > 64 | > 64 | 16 (≈ 24.1 µM) | 2 (≈ 3.02 µM) | 8 (≈ 12.1 µM) | > 64 | 32 (≈ 48.3 µM) | 32 (≈ 48.3 µM) | 32 (≈ 48.3 µM) | 64 (≈ 96.6 µM) | > 64 | 32 (≈ 48.3 µM) |
| CC1=C\[C@@H](O)CC(=O)Cc2nc(co2)C(=O)N2CCC[C@@H]2C(=O)O[C@H]([C@@H](C)COC(=O)Nc2ccc(C(F)(F)F)cc2)[C@H](C)/C=C/C(=O)NC\C=C\1 [SA0110044] | > 64 | 16 (≈ 21.9 µM) | > 64 | > 64 | > 64 | > 64 | > 64 | > 64 | > 64 | > 64 | > 64 | 16 (≈ 21.9 µM) | 16 (≈ 21.9 µM) | > 64 | > 64 | 32 (≈ 43.8 µM) | > 64 | > 64 | > 64 | > 64 |
| CC1=C\[C@@H](O)CC(=O)Cc2nc(co2)C(=O)N2CCC[C@@H]2C(=O)O[C@H]([C@@H](C)COC(=O)Nc2cccnc2)[C@H](C)/C=C/C(=O)NC\C=C\1 [SA0110067] | > 64 | 32 (≈ 48.2 µM) | > 64 | > 64 | > 64 | > 64 | > 64 | 32 (≈ 48.2 µM) | > 64 | > 64 | 64 (≈ 96.4 µM) | 8 (≈ 12.1 µM) | 32 (≈ 48.2 µM) | > 64 | > 64 | 64 (≈ 96.4 µM) | > 64 | > 64 | > 64 | > 64 |
| CC1=C\[C@@H](O)CC(=O)Cc2nc(co2)C(=O)N2CCC[C@@H]2C(=O)O[C@H]([C@@H](C)COC(=O)Nc2ccnc(Br)c2)[C@H](C)/C=C/C(=O)NC\C=C\1 [SA0110081] | > 64 | 32 (≈ 43.1 µM) | > 64 | > 64 | > 64 | > 64 | > 64 | 32 (≈ 43.1 µM) | > 64 | > 64 | 32 (≈ 43.1 µM) | 4 (≈ 5.39 µM) | 32 (≈ 43.1 µM) | > 64 | > 64 | 32 (≈ 43.1 µM) | > 64 | > 64 | > 64 | > 64 |
| CC1=C\[C@@H](O)CC(=O)Cc2nc(co2)C(=O)N2CCC[C@@H]2C(=O)O[C@H]([C@@H](C)COC(=O)Nc2ccc(Br)nc2)[C@H](C)/C=C/C(=O)NC\C=C\1 [SA0110082] | > 64 | 32 (≈ 43.1 µM) | > 64 | > 64 | > 64 | > 64 | > 64 | 8 (≈ 10.8 µM) | > 64 | > 64 | 32 (≈ 43.1 µM) | 4 (≈ 5.39 µM) | 16 (≈ 21.5 µM) | > 64 | > 64 | 32 (≈ 43.1 µM) | > 64 | > 64 | > 64 | 64 (≈ 86.2 µM) |
| CC1=C\[C@@H](O)CC(=O)Cc2nc(co2)C(=O)N2CCC[C@@H]2C(=O)O[C@H]([C@@H](C)COC(=O)Nc2coc(C)n2)[C@H](C)/C=C/C(=O)NC\C=C\1 [SA0110095] | > 64 | 32 (≈ 47.9 µM) | > 64 | > 64 | > 64 | > 64 | > 64 | 16 (≈ 24 µM) | > 64 | > 64 | 32 (≈ 47.9 µM) | 8 (≈ 12 µM) | 16 (≈ 24 µM) | > 64 | > 64 | 64 (≈ 95.8 µM) | > 64 | > 64 | > 64 | 64 (≈ 95.8 µM) |
